Consider 22 molecules from patent US12503444B2, “Compound containing benzene ring and application thereof” (WUHAN LL SCIENCE AND TECHNOLOGY DEVELOPMENT CO., LTD., priority 2019, dated 2025).

Data set [1] deals with T1, hP2X4 (human purinergic P2X receptor subtype 4) (Homo sapiens, UniProt Q99571).
T1 sequence (Q99571 1-404 isoform Q99571-2): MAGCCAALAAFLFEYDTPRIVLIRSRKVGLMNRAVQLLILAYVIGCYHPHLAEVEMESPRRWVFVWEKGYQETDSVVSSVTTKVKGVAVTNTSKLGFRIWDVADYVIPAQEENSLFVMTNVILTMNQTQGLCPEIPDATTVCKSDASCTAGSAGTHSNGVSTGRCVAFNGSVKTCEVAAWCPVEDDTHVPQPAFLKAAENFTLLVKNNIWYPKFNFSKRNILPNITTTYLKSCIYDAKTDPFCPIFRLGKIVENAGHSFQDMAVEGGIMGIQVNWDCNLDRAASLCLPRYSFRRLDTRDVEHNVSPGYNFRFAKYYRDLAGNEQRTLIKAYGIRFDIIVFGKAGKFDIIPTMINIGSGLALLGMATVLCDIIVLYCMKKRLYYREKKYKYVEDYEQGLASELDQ
Nature of the data set: FLIPR assay of intracellular calcium increase induced by activation of hP2X4 expressed in HEK293 cells (agonist BZ-ATP 2.5 μM). Conditions: HEK293 cells stably expressing hP2X4, FLIPR, read-out: P2X4 IC50. It is filed as cell-based. The method, boiled down: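 HEK293 cells stably expressing hP2X4, loaded with Calcium 6 dye for 1.5 h at 37° C, then preincubated with compound 30 min at room temperature.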
A general note: Calcium assays in cells follow changes in intracellular calcium, usually with a dye or a luminescent sensor.

The nature of data set [2]: In vitro metabolic stability, liver microsome incubation (human). It is filed as in vitro ADME. Conditions: human, liver microsomes, 1 mg/mL liver microsome protein, 37° C., read-out: T1/2 in human liver microsome min. As to the method: (§1) The in vitro metabolic stability of the compounds disclosed herein was determined through incubation of liver microsomes of various species. A proper amount of test compound was added into a liver microsome reaction system (1 mg/mL liver microsome protein, 25 U/mL glucose-6 phosphate dehydrogenase, 1 mM NADP, 6 mM D-glucose 6-phosphate and 5 mM MgCl2), and then the mixture was incubated in a water bath kettle at 37° C. to start the reaction. At each time point, 100 μL of the reaction system was added into a centrifuge tube containing 400 μL of internal standard working solution (containing a 200 ng/mL solution of dexamethasone, diclofenac, tolbutamide and labetalol in acetonitrile) precooled at 0° C. so as to stop the reaction, and the mixture was then centrifuged at 10,000 g for 10 min at 4° C. The supernatant was collected for LC-MS assay so as to obtain the values of in vitro metabolic half-life of the test compounds in liver microsomes of various species.
For orientation: Microsomes from liver hold many membrane-bound enzymes, among them those of drug oxidation.

Data set [3] is described as follows: In vitro metabolic stability, liver microsome incubation (rat). It is filed as in vitro ADME. Conditions: rat, liver microsomes; 1 mg/mL liver microsome protein, 37° C.; read-out: T1/2 in rat liver microsome min. The method, then:
as §1

A short description of data set [4]: In vitro cytotoxicity assay in HepG2 cells, CCK-8 method. Conditions: human. For orientation: Formazan colour is commonly taken as a measure of viable cells.
Method: In vitro cytotoxicity assay for the compounds disclosed herein was performed in HepG2 cells using the CCK-8 method. HepG2 cells (Beina Bio) in the logarithmic growth phase were collected, the concentration of cell suspension was adjusted, and then the cells were plated on a 96-well cell culture plate at 50,000 cells/well. The cells were then incubated overnight in a cell incubator (5%/humidity, 37° C.), and after 80-90% cell confluence was achieved, test compounds or vehicle (DMSO) at various concentration gradients were added after medium change. The resulting mixture was incubated in the cell incubator (5% humidity, 37° C.) for 48 h. After the treatment, the medium in the plate was discarded. The plate was washed twice with PBS, added with CCK-8 working solution (Beyotime) at 100 μL per well, and then incubated at 37° C. for 1.5 h away from the light. Absorbance at OD450 nm was measured for each well on a microplate reader, and CC50 value of each compound was analyzed and calculated.
The test system of data set [5] is Male Dunkin Hartley guinea pigs. Nature of the data set: Citric acid only cough model in guinea pigs. In kind it is in vivo. Conditions: guinea pig, 17.5% citric acid. The method, then: Male Dunkin Hartley guinea pigs (300-350 g) were placed in an animal atomization box, and then the door of the atomization box was closed while the ultrasonic atomizer (Guangdong Yuehua) was turned on. 17.5% citric acid gas was introduced into the atomization box at a maximum atomization rate (about 2 mL/min) for 20 s, and coughs of the animals within 10 min were continuously observed from the time of the start of atomization. During the 10-min observation, coughs of the animals needed to be counted manually, and the number of coughs were judged according to cough postures of the guinea pigs, such as abdominal twitching, mouth opening, and head inclining downward abruptly. The number of coughs during the first 5 min and that during 10 min were recorded, and the cough latency of the guinea pigs, namely the time from the initiation of citric acid induction to the appearance of the 1st cough, was also recorded.
Cough inhibition rate Vs vehicle represents the percentage of reduction
[formula] in the number of coughs in the administration group compared to the vehicle group upon citric acid challenge; Cough inhibition rate Vs baseline represents the percentage of reduction
[formula] in the number of coughs in the administration group before and after administration.

Where [6] appears, read: 60 mg/kg group, before administration (baseline).

Structures are written as SMILES. Where two headings read alike, the source gives them in different places. Where only a bound is given, the exact number is not on record here.

On to `NS(=O)(=O)c1cc(NC(=O)Cc2ccccc2Cl)cc2nn(CC3CCOCC3)cc12` [Compound 141, 2-(2-chlorophenyl)-N-(4-sulfamoyl-2-((tetrahydro-2H-pyran-4-yl)methyl)-2H-indazol-6-yl)acetamide], for which the IC50 in data set [1] (class symbols) fell in the range of 0.05 to 0.2 µM. Moreover, the half-life came to 1.07 h in data set [2] and 0.226 h in data set [3].
Regarding `NS(=O)(=O)c1cc(NC(=O)Cc2ccccc2Cl)cc2nn(CC(F)F)cc12` [Compound 12-A, 2-(2-chlorophenyl)-N-(2-(2,2-difluoroethyl)-4-sulfamoyl-2H-indazol-6-yl)acetamide], the concentration for half-maximal inhibition (IC50) in data set [1] (numeric values) turned out to be 0.031 µM. The half-life in data set [2] (symbol NA) was greater than 106 h. In data set [4], the cytotoxic concentration (CC50) at 48 h is greater than 200 µM.
`CC(C)CCn1cc2c(S(N)(=O)=O)cc(NC(=O)Cc3ccccc3Cl)cc2n1` [Compound 8-A, 2-(2-chlorophenyl)-N-(2-isopentyl-4-sulfamoyl-2H-indazol-6-yl)acetamide]: in data set [1] (numeric values), the IC50 was determined as 0.0139 µM. Moreover, the half-life in data set [2] was 0.584 h. The 50% cytotoxic concentration (CC50) at 48 h in data set [4] is greater than 200 µM.
For `CC(C)OCCn1cc2c(S(N)(=O)=O)cc(NC(=O)Cc3ccccc3Cl)cc2n1` [Compound 26-A, 2-(2-chlorophenyl)-N-(2-(2-isopropoxyethyl)-4-sulfamoyl-2H-indazol-6-yl)acetamide], the half-maximal inhibitory concentration (IC50) in data set [1] (numeric values) came to 0.0061 µM. In addition, the half-life in data set [2] was 2.09 h. Also, in data set [4], the CC50 at 48 h is greater than 200 µM.
With `NS(=O)(=O)c1cc(NC(=O)Cc2ccccc2Cl)cc2nn(CC3CCCC3)cc12` [Compound 31-A, 2-(2-chlorophenyl)-N-(2-(cyclopentylmethyl)-4-sulfamoyl-2H-indazol-6-yl)acetamide], the IC50 in data set [1] (class symbols) is no more than 0.01 µM. For the same molecule, the half-life in data set [2] is 0.748 h.
Consider `C=CC(F)(F)n1cc2c(S(N)(=O)=O)cc(NC(=O)Cc3ccccc3Cl)cc2n1` [Compound 134, 2-(2-chlorophenyl)-N-(2-(1,1-difluoroallyl)-4-sulfamoyl-2H-indazol-6-yl)acetamide], for which the IC50 in data set [1] (class symbols) fell in the range of 0.01 to 0.05 µM. Moreover, the half-life was 13.7 h in data set [2] and 3.22 h in data set [3].
In the case of `NS(=O)(=O)c1cc(NC(=O)Cc2ccccc2Cl)cc2nn(CC3CCC3)cc12` [Compound 24-A, 2-(2-chlorophenyl)-N-(2-(cyclobutylmethyl)-4-sulfamoyl-2H-indazol-6-yl)acetamide], the IC50 in data set [1] (numeric values) turned out to be 0.0016 µM. Also, the half-life in data set [2] worked out at 1.08 h.
Regarding `NS(=O)(=O)c1cc(NC(=O)Cc2ccccc2Cl)cc2c1cnn2CC1CCOC1` (centres unmarked) [Compound 110A, 2-(2-chlorophenyl)-N-(4-sulfamoyl-1-((tetrahydrofuran-3-yl)methyl)-1H-indazol-6-yl)acetamide], the half-maximal inhibitory concentration (IC50) in data set [1] (class symbols) lay in the range of 0.2 to 5 µM. The results for the half-life in data set [2] and in data set [3] were 0.882 h and 0.335 h, respectively.
For `NS(=O)(=O)c1cc(NC(=O)Cc2ccccc2Cl)cc2nn(CC3CCOC3)cc12` (centres unmarked) [Compound 110, 2-(2-chlorophenyl)-N-(4-sulfamoyl-2-((tetrahydrofuran-3-yl)methyl)-2H-indazol-6-yl)acetamide] the same measures were 0.05 to 0.2 µM, 7.18 h and 1.15 h.
As for `COc1ccccc1Cn1cc2c(S(N)(=O)=O)cc(NC(=O)Cc3ccccc3Cl)cc2n1` [Compound 37-A, 2-(2-chlorophenyl)-N-(2-(2-methoxybenzyl)-4-sulfamoyl-2H-indazol-6-yl)acetamide], in data set [1] (class symbols), the IC50 fell in the range of 0.01 to 0.05 µM. Also, the half-life in data set [2] came to 1.32 h.
In the case of `C=CCn1ncc2c(S(N)(=O)=O)cc(NC(=O)Cc3ccccc3Cl)cc21` [Compound 14-B], the IC50 in data set [1] (class symbols) was no more than 0.01 µM. Moreover, the half-life in data set [2] amounted to 1.61 h.
Turning to `NS(=O)(=O)c1cc(NC(=O)Cc2ccccc2Cl)cc2c1cnn2CC1CCCO1` (centres unmarked) [Compound 120A, 2-(2-chlorophenyl)-N-(4-sulfamoyl-1-((tetrahydrofuran-2-yl)methyl)-1H-indazol-6-yl)acetamide], in data set [1] (class symbols), the IC50 fell in the range of 0.05 to 0.2 µM. The half-life in data set [2] was 0.371 h; in data set [3] it was 0.137 h.
Turning to `NS(=O)(=O)c1cc(NC(=O)Cc2ccccc2Cl)cc2cn(CC3CC3)nc12` [Compound 47, 2-(2-chlorophenyl)-N-(2-(cyclopropylmethyl)-7-sulfamoyl-2H-indazol-5-yl)acetamide], in data set [1] (numeric values), the half-inhibitory concentration (IC50) was 0.017 µM. The half-life in data set [2] stood at 13.1 h. Further, the CC50 at 48 h in data set [4] is greater than 200 µM.
`COc1cccc(Cn2cc3c(S(N)(=O)=O)cc(NC(=O)Cc4ccccc4Cl)cc3n2)c1` [Compound 36-A, 2-(2-chlorophenyl)-N-(2-(3-methoxybenzyl)-4-sulfamoyl-2H-indazol-6-yl)acetamide]: the half-maximal inhibitory concentration (IC50) in data set [1] (class symbols) lay in the range of 0.01 to 0.05 µM. For the same molecule, in data set [2], the half-life was found to be 1.44 h.
For `COc1ccc(Cn2cc3c(S(N)(=O)=O)cc(NC(=O)Cc4ccccc4Cl)cc3n2)cc1` [Compound 35-A, 2-(2-chlorophenyl)-N-(2-(4-methoxybenzyl)-4-sulfamoyl-2H-indazol-6-yl)acetamide], the IC50 in data set [1] (class symbols) lay in the range of 0.01 to 0.05 µM. Besides, in data set [2], the half-life was determined as 6.21 h. Also, the CC50 at 48 h in data set [4] is greater than 200 µM.
With `NS(=O)(=O)c1cc(NC(=O)Cc2ccccc2Cl)cc2nn(CC3CCCO3)cc12` (centres unmarked) [Compound 120, 2-(2-chlorophenyl)-N-(4-sulfamoyl-2-((tetrahydrofuran-2-yl)methyl)-2H-indazol-6-yl)acetamide], the IC50 in data set [1] (class symbols) is 0.05 to 0.2 µM. Besides, the half-life in data set [2] was determined as 1.06 h; in data set [3], 0.226 h.
As for `Cn1ncc2c(S(N)(=O)=O)cc(NC(=O)Cc3ccccc3Cl)cc21` [Compound 3-B, 2-(2-chlorophenyl)-N-(1-methyl-4-sulfamoyl-1H-indazol-6-yl)acetamide], the IC50 in data set [1] (numeric values) is 0.0063 µM. Moreover, in data set [2], the half-life came to 2.58 h.
With `COc1ccc2c(c1)[C@]13CCCC[C@@H]1[C@H](C2)N(C)CC3` [Dextromethorphan, dextromethorphan, reference compound], the “Cough inhibition rate Vs vehicle (%)” value in data set [5] (60 mg/kg) was 33.95%. For the same molecule, in data set [5] (setting [6]), the “Cough latency” value was 73.43 s and the “Mean number of coughs” value turned out to be 18.57. Further, in data set [5] (60 mg/kg, after administration), the “Cough latency” value worked out at 154.29 s and the “Mean number of coughs” value is recorded as 12.71. Also, in data set [5] (60 mg/kg, before vs after administration), the “Cough inhibition rate Vs baseline (%)” value stood at 31.54%.
Consider `COc1ccc(Cn2ncc3c(S(N)(=O)=O)cc(NC(=O)Cc4ccccc4Cl)cc32)cc1` [Compound 35-B, 2-(2-chlorophenyl)-N-(1-(4-methoxybenzyl)-4-sulfamoyl-1H-indazol-6-yl)acetamide], for which the IC50 in data set [1] (class symbols) lay in the range of 0.01 to 0.05 µM. Moreover, the half-life in data set [2] came out at 4.66 h. In addition, the CC50 at 48 h in data set [4] is greater than 200 µM.
With `Nc1ccc(Cn2ncc3c(S(N)(=O)=O)cc(NC(=O)Cc4ccccc4Cl)cc32)cn1` [Compound 101A, N-(1-((6-aminopyridin-3-yl)methyl)-4-sulfamoyl-1H-indazol-6-yl)-2-(2-chlorophenyl)acetamide], in data set [1] (class symbols), the IC50 lay within 0.01 to 0.05 µM. Further, the half-life in data set [2] was determined as 1.19 h.
As for `CCC(F)(F)n1cc2c(S(N)(=O)=O)cc(NC(=O)Cc3ccccc3Cl)cc2n1` [Compound 133, 2-(2-chlorophenyl)-N-(2-(1,1-difluoropropyl)-4-sulfamoyl-2H-indazol-6-yl)acetamide], in data set [1] (class symbols), the IC50 was in the range of 0.01 to 0.05 µM. For the same molecule, the figures for the half-life in data set [2] and in data set [3] were 25 h and 2.26 h, respectively. The same molecule came in with a 50% cytotoxic concentration (CC50) at 48 h in data set [4] greater than 100 µM.
As for `Nc1ccc(Cn2cc3c(S(N)(=O)=O)cc(NC(=O)Cc4ccccc4Cl)cc3n2)cn1` [Compound 101, N-(2-((6-aminopyridin-3-yl)methyl)-4-sulfamoyl-2H-indazol-6-yl)-2-(2-chlorophenyl)acetamide], the 50% inhibitory concentration (IC50) in data set [1] (class symbols) fell in the range of 0.01 to 0.05 µM. In addition, the half-life in data set [2] turned out to be 1.86 h.

Usually IC50 stands for the point on the concentration scale where inhibition reaches its midpoint. As a reminder, the CC50 is the concentration giving 50% cytotoxicity. Read a high CC50 as better tolerance by the cells.
